# Source: patent US20220409643A1, “ROR Gamma T Inhibitors and Topical Uses Thereof” (Dermira, inc., priority 2019, published 2022)
# Test system: IL17A
# Experiment: skin Resident Immune Cell Assay (sRICA), Th17 model, IL17A protein in media
# Assay type: cell-based
# Conditions: 100 uM solution in 1% DMSO/OD applied topically to human skin; media collected 24 hours after Th17 activation
# Procedure: A skin Resident Immune Cell Assay (sRICA) was used to test compounds for reduction of IL-17A protein upregulation in the Th17 sRICA model. In this model, human surgical skin waste was cultured in a transwell system, with the dermis in contact with cell culture media and the stratum corneum exposed to air. To perform the assay, each human skin sample was defatted and dermatomed to 750μm. Next, 8 mm punch biopsies were obtained and placed in a membrane transwell. The transwells were inserted into culture wells with complete media, and a cocktail of cytokines and antibodies were added to promote skin resident immune cell polarization.
# RORγt inhibitors were prepared as a 100 uM solution in 1% DMSO/OD. […] of the prepared topical solution was applied to sRICA wells prepared for topical drug evaluation. Drugs were allowed to penetrate the skin overnight, for up to 24 hours prior to Th17 activation. Media was collected 24 hours after Th17 activation for IL17A protein assessment. IL17A protein was evaluated using the Quanterix IL17A detection kit on the SiMoA platform (via CRO Translational Biosciences). There was significant upregulation of IL17A with Th17 activation. Each study was normalized to the % max of IL17A production (i.e. the average IL17A concentration of Th17 activated skin alone) was set to 100%, all other values (untreated no activation and treated samples) were obtained as a percentage of this. […]
row,Compound,inhibition at 100 µM [%]
1,"COCC(C)(C)c1c(F)cc(NC(=O)[C@H]2c3ccc(OC)cc3CCN2C(=O)c2cc(O)no2)cc1F [(1R)-N-(3,5-difluoro-4-(1-methoxy-2-methylpropan-2-yl)phenyl)-2-((3-hydroxy-1,2-oxazol-5-yl)carbonyl)-6-methoxy-1,2,3,4-tetrahydroisoquinoline-1-carboxamide]",56.2
2,"CC(C)(C)c1ccc(NC(=O)[C@H](NC(=O)[C@@H]2CNC(=O)C2)c2ccc3c(c2)CCO3)cc1F [(3S)-N-(2-((4-tert-butyl-3-fluorophenyl)amino)-1-(2,3-dihydro-1-benzofuran-5-yl)-2-oxoethyl)-5-oxopyrrolidine-3-carboxamide]",48.7
3,"CC(C)n1c(=O)n(CC2CC2)c(=O)c2cc(NC(=O)N3CCC[C@@H](NC(=O)c4cc(F)ccc4F)C3)c(F)cc21 [(3R)-N-(3-(cyclopropylmethyl)-7-fluoro-1-isopropyl-2,4-dioxo-1,2,3,4-tetrahydroquinazolin-6-yl)-3-((2,5-difluorobenzoyl)amino)-piperidine-1-carboxamide]",44.2
4,"CC(C)(C)c1ccc(NC(=O)[C@H](NC(=O)C(O)C(F)(F)F)C2CCOCC2)cc1Cl (stereo partly drawn) [N-((1R)-2-((4-tert-butyl-3-chlorophenyl)amino)-2-oxo-1-(tetrahydro-2H-pyran-4-yl)ethyl)-3,3,3-trifluoro-2-hydroxypropanamide]",71.3
5,"COc1ccc2c(c1)CCN(C(=O)c1cc(O)no1)[C@H]2C(=O)Nc1cc(F)c2c(c1)CCC2(C)C (stereo in doubt) [N-(7-fluoro-1,1-dimethyl-2,3-dihydro-1H-inden-5-yl)-2-((3-hydroxy-1,2-oxazol-5-yl)carbonyl)-6-methoxy-1,2,3,4-tetrahydroisoquinoline-1-carboxamide]",42.3
6,"COc1ccc2c(n1)CCN(C(=O)c1cc(O)no1)[C@H]2C(=O)Nc1cc(F)c2c(c1)CCC2(C)C [(5R)-N-(7-fluoro-1,1-dimethyl-2,3-dihydro-1H-inden-5-yl)-6-((3-hydroxy-1,2-oxazol-5-yl)carbonyl)-2-methoxy-5,6,7,8-tetrahydro-1,6-naphthyridine-5-carboxamide]",46.9
7,"CC(C)n1c(=O)n(CC2CC(F)(F)C2)c(=O)c2cc(NC(=O)N3CCC[C@@H](N4Cc5ccccc5C4=O)C3)c(F)cc21 [(3R)-N-(3-((3,3-difluorocyclobutyl)-methyl)-7-fluoro-1-isopropyl-2,4-dioxo-1,2,3,4-tetrahydro-quinazolin-6-yl)-3-(1-oxo-1,3-dihydro-2H-isoindol-2-yl)-piperidine-1-carboxamide]",73.1
8,"COc1ccc2c(c1)CCN(C(=O)Cc1cc(O)no1)[C@H]2C(=O)Nc1cc(F)c2c(c1)CCC2(C)C [(1R)-N-(7-fluoro-1,1-dimethyl-2,3-dihydro-1H-inden-5-yl)-2-((3-hydroxy-1,2-oxazol-5-yl)acetyl)-6-methoxy-1,2,3,4-tetrahydroisoquinoline-1-carboxamide]",33.9
9,"COc1ccc2c(c1)CCN(C(=O)c1cc(O)no1)[C@H]2C(=O)Nc1cc(F)c(C(C)(C)COCC(F)F)c(F)c1 [(1R)-N-(4-(1-(2,2-difluoroethoxy)-2-methylpropan-2-yl)-3,5-difluorophenyl)-2-((3-hydroxy-1,2-oxazol-5-yl)carbonyl)-6-methoxy-1,2,3,4-tetarhydroisoquinoline-1-carboxamide]",30.3
10,"COCc1ccc2c(c1)CCN(C(=O)Cc1cc(O)no1)[C@H]2C(=O)Nc1ccc(C(C)(C)C)c(F)c1 [(1R)-N-(4-tert-butyl-3-fluorophenyl)-2-((3-hydroxy-1,2-oxazol-5-yl)acetyl)-6-methoxymethyl-1,2,3,4-tetrahydroisoquinoline-1-carboxamide]",60.8

# Same assay, conditions: Homo sapiens, 24 h, 100 uM solution in 1% DMSO/OD applied topically to human skin; media collected 24 hours after Th17 activation
row,Compound,inhibition at 100 µM [%]
1,COCc1ccc(C(NC(=O)C2CNC(=O)C2)C(=O)Nc2ccc([Si](C)(C)C)c(F)c2)cc1 (stereo not drawn) [N-(2-((3-fluoro-4-(trimethylsilyl)phenyl)amino)-1-(4-(methoxymethyl)phenyl)-2-oxoethyl)-5-oxopyrrolidine-3-carboxamide],85.2
2,COCc1ccc([C@@H](NC(=O)C2CCN(C(C)=O)CC2)C(=O)Nc2ccc([Si](C)(C)C)c(F)c2)cc1 [1-acetyl-N-((1R)-2-((3-fluoro-4-(trimethylsilyl)phenyl)amino)-1-(4-(methoxymethyl)phenyl)-2-oxoethyl)piperidine-4-carboxamide],77.5
3,"COc1ccc2c(c1)CCN(C(=O)c1cc(O)no1)[C@H]2C(=O)Nc1ccc([Si](C)(C)C)c(F)c1 (stereo in doubt) [N-(3-fluoro-4-(trimethylsilyl)phenyl)-2-((3-hydroxy-1,2-oxazol-5-yl)carbonyl)-6-methoxy-1,2,3,4-tetrahydroisoquinoline-1-carboxamide]",7.69
4,"COc1ccc2c(n1)CCN(C(=O)CCCC(=O)O)[C@H]2C(=O)Nc1ccc([Si](C)(C)C)c(F)c1 [5-((5R)-5-((3-fluoro-4-(trimethylsilyl)phenyl)carbamoyl)-2-methoxy-7,8-dihydro-1,6-naphthyridin-6(5H)-yl)-5-oxopentanoic acid]",51.5
5,COc1ccc([C@@H](NC(=O)[C@H]2CNC(=O)C2)C(=O)Nc2ccc([Si](C)(C)C)c(F)c2)cc1 [(3R)-N-((1R)-2-((3-fluoro-4-(trimethylsilyl)phenyl)amino)-1-(4-(methoxy)phenyl)-2-oxoethyl)-5-oxopyrrolidine-3-carboxamide],65.2
6,"COCc1ccc2c(n1)CCN(C(=O)Cc1cc(O)no1)[C@H]2C(=O)Nc1cc(F)c([Si](C)(C)C)c(F)c1 [(5R)-N-(3,5-difluoro-4-(trimethylsilyl)phenyl)-6-((3-hydroxy-1,2-oxazol-5-yl)acetyl)-2-(methoxymethyl)-5,6,7,8-tetrahydro-1,6-naphthyridine-5-carboxamide]",60.1
7,"CN(C(=O)c1cc(O)no1)C(C(=O)Nc1cc(F)c([Si](C)(C)C)c(F)c1)C1CCOCC1 (stereo not drawn) [N-(2-((3,5-difluoro-4-(trimethylsilyl)phenyl)amino)-2-oxo-1-(tetrahydro-2H-pyran-4-yl)ethyl)-3-hydroxy-N-methyl-1,2-oxazole-5-carboxamide]",31.7
8,"COCc1ccc([C@@H](NC(=O)Cn2nc(C)ccc2=O)C(=O)Nc2cc(F)c([Si](C)(C)C)c(F)c2)cc1 [(2R)-N-(3,5-difluoro-4-(trimethylsilyl)phenyl)-2-(4-(methoxymethyl)phenyl)-2-(((3-methyl-6-oxopyridazin-1(6H)-yl)acetyl)amino)acetamide]",38.7
9,COCc1ccc([C@@H](NC(=O)CS(C)(=O)=O)C(=O)Nc2ccc([Si](C)(C)C)c(F)c2)cc1 [(2R)-N-(3-fluoro-4-(trimethylsilyl)phenyl)-2-(4-(methoxymethyl)phenyl)-2-(((methylsulfonyl)acetyl)amino)acetamide],31.3
10,COc1ccc(C(NC(=O)C2CNC(=O)C2)C(=O)Nc2ccc([Si](C)(C)C)c(F)c2)cc1 (stereo not drawn) [N-(2-((3-fluoro-4-(trimethylsilyl)phenyl)amino)-1-(4-methoxyphenyl)-2-oxoethyl)-5-oxopyrrolidine-3-carboxamide],65.8
11,"COCc1ccc([C@@H](NC(=O)Cn2cnccc2=O)C(=O)Nc2cc(F)c([Si](C)(C)C)c(F)c2)cc1 [(2R)-N-(3,5-difluoro-4-(trimethylsilyl)phenyl)-2-(4-(methoxymethyl)phenyl)-2-(((6-oxopyrimidin-1(6H)-yl)acetyl)amino)acetamide]",80
